Test results from patent US20220264878A1, “HERBICIDAL COMPOSITION CONTAINING R-TYPE PYRIDYLOXY CARBOXYLIC ACID DERIVATIVE AND USE THEREOF” (Qingdao Kingagroot Chemical Compound Co., Ltd., priority 2019, published 2022).

Legend:
Type in all cases: in vivo
[1] = system: Malachium aquaticum; experiment: Post-emergence foliage spray, pot culture, fresh weight inhibition (Tables 1-48, 51-98, 101-148; 24 days)
How it was run: (§1)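 Pot-grown weeds were thinned to 15 per pot (45 per treatment) and sprayed on foliage at the 5–6-leaf stage for grasses or the 6–7-leaf stage for broadleaves. Agents were dissolved in acetone with 0.1% Tween-80 and applied at 450 kg/ha spray volume and 0.3 MPa. Plants were then kept in a greenhouse. Above-ground fresh weight of survivors, with dead plants counted as zero, gave inhibition versus a solvent/emulsifier blank.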

[2] = system: Chenopodium album; experiment: as above
How it was run: as §1

[3] = system: Echinochloa caudate; experiment: as above
How it was run: as §1

[4] = system: Echinochloa crusgalli var. zelayensis; experiment: Soil sealing treatment, pot culture, fresh weight inhibition (Tables 49, 50)
Description: A method for investigating absolute number was employed, wherein whole seedlings of survival weeds were cut off with a blade along the soil surface, and the fresh weight of the weeds was weighed with an analytical balance. For dead weeds, the fresh weight thereof was zero.
Theoretical fresh weight inhibition rate of a combination of two active ingredients in each group was calculated by the Gowing method (E0=X+Y−X*Y/100), and then compared with an actually measured inhibition rate (E), thereby effect of the combination (hereafter referred to as combined effect) on weeds was evaluated: the value of E-E0, which was greater than 10%, corresponded to a synergistic effect, the value of E-E0, which was less than −10%, corresponded to an antagonistic effect, and the value of E-E0, which was from −10% to 10%, corresponded to an additional effect. […] Wherein, in the formula, X represented the fresh weight inhibition rate of the active ingredient A in a dosage of P, and Y represented the fresh weight inhibition rate of the active ingredient B in a dosage of Q.
Echinochloa crusgalli var zelayensis were collected in Huai'an of Jiangsu Province; Echinochloa caudate were collected in Pingluo of Ningxia Province; Echinochloa oryzoides were collected in Qiqiha'er of Heilongjiang Province.
The culture was carried out in a controllable sunlight greenhouse at 20 to 30° C., in natural light, and relative humidity of 57% to 72%. […] The test soil was placed quantitatively to ¾ of the pots and then watered from the bottom of the pots to completely wet the soil to saturation. The pretreated test weed seeds were uniformly sowed on the surface, then covered with 0.5-2 cm soil according to the seed size, and ready-for use 24 hours after sowing.
The technical materials were all dissolved in acetone, and diluted with an aqueous solution containing 0.1% emulsifier T-80. The dilution is performed as required.
A ratio of A to the active ingredient B and amounts thereof in each group depends on the characteristics and toxicity of the two agents, as well as the main application purpose of a corresponding formulation. Based on the pre-tests in this study, the dosage of A and the active ingredient B applied alone and in combination were shown in the tables. Water containing the solvent and emulsifier same with the above groups but free of the agents was used as a blank control.
3 pots with 30 weed seeds per pot were treated in one treatment with 4 replications per treatment.
The pots which were sowed and mulched were evenly placed on a platform with an area of 0.5 m^2, and a solution of agents was sprayed on soil surface thereof by the 3WP-2000-type walking spray tower at a dosage of […] and at a spray pressure of 0.3 MPa. After all the solution was sprayed, the valve was closed. After 30 seconds, the door of the spray tower was opened, and the nutritional bowl was taken out. Then the valve was opened, and the spray tube was cleaned by spraying 50 ml of water.
This section was same as the section 4) in the post-emergence treatment by performing foliage spray, and was not repeated herein.

[5] = system: Galium aparine L.; experiment: Post-emergence foliage spray, pot culture, fresh weight inhibition (Tables 1-48, 51-98, 101-148; 24 days); conditions: fresh weight inhibition after 24 days
How it was run: as §1

[6] = system: Echinochloa crusgalli var. zelayensis; experiment: as above
How it was run: as §1

With `C[C@@H](Oc1nc(F)c(Cl)c(N)c1Cl)C(=O)O` [Compound A1] the “Control effect (%) of A applied alone in corresponding dose” value (shortened to “Control effect (%) of A applied alone”) ([1]; A1 7.5 g a.i./ha) was 35.8%, the “Control effect (%) of A applied alone” value ([1]; A1 15 g a.i./ha) was 69.6% and the “Control effect (%) of A applied alone” value ([2]; A1 7.5 g a.i./ha) was 23.1%. The “Control effect (%) of A applied alone” value ([2]; A1 15 g a.i./ha) was 55.6%, the “Control effect (%) of A applied alone” value ([2]; Table 91, 75 g a.i./ha) was 23.1% and the “Control effect (%) of A applied alone” value ([2]; Table 91, 150 g a.i./ha) was 55.6%. The “Control effect (%) of A applied alone” value ([2]; Table 92, 75 g a.i./ha) was 23.1%, the “Control effect (%) of A applied alone” value ([2]; Table 92, 150 g a.i./ha) was 55.6% and the “Control effect (%) of A applied alone” value ([2]; Table 93, 75 g a.i./ha) was 23.1%. The “Control effect (%) of A applied alone” value ([2]; Table 93, 150 g a.i./ha) was 55.6%, the “Control effect (%) of A applied alone” value ([2]; Table 94, 75 g a.i./ha) was 23.1% and the “Control effect (%) of A applied alone” value ([2]; Table 94, 150 g a.i./ha) was 55.6%. The “Control effect (%) of A applied alone” value ([2]; Table 95, 75 g a.i./ha) was 23.1%, the “Control effect (%) of A applied alone” value ([2]; Table 95, 150 g a.i./ha) was 55.6% and the “Control effect (%) of A applied alone” value ([2]; Table 96, 75 g a.i./ha) was 23.1%. The “Control effect (%) of A applied alone” value ([2]; Table 96, 150 g a.i./ha) was 55.6%, the “Control effect (%) of A applied alone” value ([3]; A1 75 g a.i./ha) was 55.2% and the “Control effect (%) of A applied alone” value ([3]; A1 150 g a.i./ha) was 76.3%. For the same molecule, the “Control effect (%) of A applied alone” value ([3]; Table 80, 7.5 g a.i./ha) was 55.2%, the “Control effect (%) of A applied alone” value ([3]; Table 80, 15 g a.i./ha) was 76.3% and the “Control effect (%) of A applied alone” value ([3]; Table 81, 75 g a.i./ha) was 55.2%. For the same molecule, the “Control effect (%) of A applied alone” value ([3]; Table 81, 150 g a.i./ha) was 76.3%, the “Control effect (%) of A applied alone” value ([3]; Table 85, 75 g a.i./ha) was 55.2% and the “Control effect (%) of A applied alone” value ([3]; Table 85, 150 g a.i./ha) was 76.3%. The “Control effect (%) of A applied alone” value ([3]; Table 86, 75 g a.i./ha) was 55.2%, the “Control effect (%) of A applied alone” value ([3]; Table 86, 150 g a.i./ha) was 76.3% and the “Control effect (%) of A applied alone” value ([3]; Table 89, 75 g a.i./ha) was 55.2%. The “Control effect (%) of A applied alone” value ([3]; Table 89, 150 g a.i./ha) was 76.3%, the “Control effect (%) of A applied alone” value ([3]; Table 97, 75 g a.i./ha) was 55.2% and the “Control effect (%) of A applied alone” value ([3]; Table 97, 150 g a.i./ha) was 76.3%.

`C[C@@H](Oc1nc(F)c(Cl)c(N)c1Cl)C(=O)OCC1CCCO1` (stereo partly drawn) [Compound A2] was tested, and the “Control effect (%) of A applied alone” value ([4]; A2 75 g a.i./ha) was 21.4%, the “Control effect (%) of A applied alone” value ([4]; A2 150 g a.i./ha) was 45.2% and the “Control effect (%) of A applied alone” value ([5]; A 7.5 g a.i/ha) was 34.8%. The “Control effect (%) of A applied alone” value ([5]; A 15 g a.i/ha) was 68.5%, the “Control effect (%) of A applied alone” value ([5]; A 150 g a.i/ha (so in the source)) was 68.5% and the “Control effect (%) of A applied alone” value ([6]; A2 75 g a.i./ha) was 54.2%. The “Control effect (%) of A applied alone” value ([6]; A2 150 g a.i./ha) was 75.3%, the “Control effect (%) of A applied alone” value ([6]; A 75 g a.i./ha, foliage spray, fresh weight inhibition after 24 days) was 54.2% and the “Control effect (%) of A applied alone” value ([6]; A 150 g a.i./ha, foliage spray, fresh weight inhibition after 24 days) was 75.3%.
